Tests used:
[1] = system: human colon cancer cell strain HT29; test: Cell growth inhibition test (MTT), HT29; format: cell-based; conditions: HT-29, 72 h, HT29, 3 days culture, read-out: concentration exhibiting anti-cell effect (GI50)
Description: (§1) After a cultured cancer cell strain was treated with a test compound for a predetermined period, a cell growth inhibition test was performed by measuring the living cell count by the 3-(4,5-dimethylthiazol-2-yl)-2,5-diphenyltetrazoliumbromide (MTT) method.
(§2) Human endometrial cancer cell strain AN3CA, human ovary cancer cell strain IGROV1, and human colon cancer cell strain HT29 were seeded in a 96-well plate at 5000, 1000, and 5000 cells, respectively, per well. On the following day of seeding, a test compound having a predetermined concentration was added and the culture was continued at 37° C. in 5% CO2 for 3 days. On the final day of culture, an MTT reaction solution was added and the resulting mixture was reacted for 4 hours to form formazan by dehydrogenases contained in living cells. Subsequently, the culture broth was removed, DMSO was added to solubilize formazan, and the amount of produced formazan was determined by measuring absorbance at 540 nm using a microplate reader.
(§3) Since correlations of the amount of produced formazan and the living cell count had been confirmed, the cell growth rate was calculated by the following formula. Cell growth rate (T/C %) after addition of test compound=100×[(B−C)/(A−C)] A: Absorbance of well not containing test compound (final culture day) B: Absorbance of well containing test compound (final culture day) C: Absorbance of well immediately before addition of test compound (following day of cell seeding)
(§4) Furthermore, the cell growth rate at each concentration of serially diluted test compound solutions was obtained, and the concentration of the test compound resulting in a 50% growth rate was obtained as the GI50 value from two concentrations including 50% therebetween and the growth rates were selected.

[2] = system: human endometrial cancer cell strain AN3CA; test: Cell growth inhibition test (MTT), AN3CA; format: cell-based; conditions: AN3-CA, 72 h, 3 days culture, read-out: concentration exhibiting anti-cell effect (GI50)
Description: as §1, §2, §3, §4

[3] = biological target: T1, human mTOR (His-tagged mTOR (1362C)) (Homo sapiens, UniProt P42345); test: mTOR kinase activity inhibition assay; format: biochemical; conditions: HTRF, read-out: IC50 against mTOR
T1 construct: the 1362 to 2549 amino acid portion on the C terminus side of human mTOR; His tag (N); made in house
Description: The mTOR kinase activity was determined in the presence and absence of a test compound. A substrate peptide is phosphorylated by mTOR kinase activity. A complex of streptavidin-XL665 and anti-phosphorylated S6K (Thr389) antibody-anti-mouse IgG-cryptate binds to this phosphorylated peptide. At this time, irradiation of excitation light induces transfer of fluorescence resonance energy from the excited cryptate to XL665, emitting fluorescence at 665 nm. Utilizing this principle, mTOR kinase activity was detected. When the mTOR inhibitor is present, phosphorylation of a substrate peptide is inhibited, and the biding of the above-mentioned complex to the substrate peptide is inhibited.
A His tag was introduced into the N terminus end of the 1362 to 2549 amino acid portion on the C terminus side of human mTOR, and a cell line was prepared, so that His-tagged mTOR should be constantly expressed in a HEK293 cell. A cell lysate was prepared from this HEK293 cell which constantly expressed His-tagged mTOR (1362C), and a crude product of His-tagged mTOR (1362C) was obtained by a usual method utilizing His tag.
Subsequently, an mTOR enzyme solution was prepared which contained the above-mentioned His-tagged mTOR (1362C) enzyme and 8 μg/ml biotinylated peptide (Biotin-Ahx-[…]-amide [Sigma]), as well as 50 mM HEPES (pH 7.5), 20 mM MnCl2, 1 mg/ml BSA, a suitable amount of protease inhibitor cocktail (Complete EDTA free, Roche Ltd.), 100 ng/ml calyculin A, and 4 μg/ml cantharidin as other components.
The test compound was dissolved in dimethyl sulfoxide (DMSO) and serially diluted with 20 μm ATP solution (50 mM HEPES (pH 7.5), 20 μM ATP) to obtain concentrations required for the assay. 5 μl of this compound solution was added to each well of a 384-well small volume white plate manufactured by Greiner Bio-One Co., Ltd.
5 μl of the mTOR enzyme solution was added to the above-mentioned well containing the test compound and the resulting mixture was left standing for 3 hours room temperature to proceed an enzymatic reaction.
The same procedure was performed using a solution obtained by dissolving DMSO in 20 μM ATP solution as a positive control and a solution obtained by dissolving DMSO in 50 mM HEPES buffer (pH 7.5) as a negative control.
After the enzymatic reaction, 5 μl each of an europium solution (a solution obtained by dissolving anti-mouse IgG-cryptate [SCETI Medical Labo K.K.] and anti-phosphorylation S6K [Thr389] antibody [Cell Signaling Technology Inc.] in 50 mM HEPES [pH 7.5], 100 mM EDTA, and 1.5 mg/ml BSA) and an XL665 solution (a solution obtained by dissolving Streptavidin-XL 665 [SCETI Medical Labo K.K.] in 50 mM HEPES [pH 7.5], 100 mM EDTA, 0.8 M KF, and 1.5 mg/ml BSA) were added in this order and mixed and the resulting mixture was left standing overnight at 4° C. On the following day, the mixture was returned to room temperature and then irradiated with 337-nm excitation light and fluorescence at 620 and 665 nm was measured with RUBYstar (BMG LABTECH JAPAN Ltd.).
mTOR inhibitory activity (%) was calculated using the ratio calculated from the measured values as an indicator of enzyme activity. Here, the ratio was calculated by the following formula (1). Ratio=10,000×fluorescence at 665 nm/fluorescence at 620 nm (1)
mTOR enzyme inhibitory activity (%) was calculated by the following formula (2). mTOR enzyme inhibitory activity (%)=100×[(P−S)/(P−N)] (2) P: Ratio in positive control well N: Ratio in negative control well S: Ratio in well containing the test compound
Furthermore, an optimal curve was created using the concentrations of the serially diluted test compound solutions and mTOR enzyme inhibitory activity (%) at each concentration to obtain the concentration showing 50% inhibition as the IC50 value of mTOR enzyme inhibitory activity.

[4] = biological target: PI3Kα (Homo sapiens, UniProt P42336); test: PI3K kinase activity inhibition assay; format: biochemical; conditions: Kinase-Glo Plus ATP detection, read-out: IC50 against PI3K
Description: PI3Kα kinase activity was determined in the presence and absence of a test compound. The test compound was dissolved in DMSO and diluted serially with an ATP solution (30 μm ATP, 50 mM HEPES, pH 7.4, 50 mM NaCl, 0.05% CHAPS, 10 mM MgCl2, and 5 mM dithiothreitol [DTT]). First, 7 μl each of the serially diluted test compound solutions was added to each well of a black 384-well plate. Subsequently, 7 μl of a phosphatidylinositol 4,5-bisphosphate (PIP2) solution (45 μm PIP2, 50 mM HEPES, pH 7.4, 50 mM NaCl, 0.05% CHAPS, 10 mM MgCl2, and 5 mM DTT) was added to each well of the 384-well plate. Finally, 7 μl of a solution containing PI3Kα (50 nM PI3Kα, 50 mM HEPES, pH 7.4, 50 mM NaCl, 0.05% CHAPS, 10 mM MgCl2, and 5 mM DTT) was added to each well of the 384-well plate to initiate a reaction. The mixture was reacted at room temperature for 2 hours and then 21 μl of the Kinase-Glo Plusreagent (Promega) was, added to each well of the 384-well plate to terminate the reaction. After the termination of the reaction, the solution was left standing for 15 minutes and then luminescence was measured with ARVO (PerkinElmer Co., Ltd.) to detect ATP remaining in the reaction solution.
The amount of ATP consumed in the reaction was obtained for each well and used as an indicator of PI3Kαkinase activity. The PI3Kα kinase activity in wells not containing the test compound was calculated by the following formula (1). Furthermore, the PI3Kα kinase activity in wells containing the test compound was calculated by the following formula (2). The PI3Kα inhibitory activity (%) of the test compound was calculated by the following formula (3). PI3Kα kinase activity in wells not containing the test compound=B−C (1) PI3Kα kinase activity in wells containing the test compound=B−P (2) PI3Kα inhibitory activity (%) of test compound=100−100×[(B−P)/(B−C)] (3) B: Measured value in wells not containing PI3Kα or the test compound C: Measured value in wells containing PI3Kα and not containing the test compound P: Measured value in wells containing PI3Kα and the test compound
Furthermore, an optimal curve was calculated with Graph Pad Prism 4 using concentrations of the serially diluted test compound solutions and PI3Kα inhibitory activity (%) at each concentration to obtain the concentration showing 50% inhibition as the IC50 value of PI3Kα inhibitory activity.

[5] = system: human ovary cancer cell strain IGROV1; test: Cell growth inhibition test (MTT), IGROV1; format: cell-based; conditions: IGROV-1, 72 h, IGROV1, 3 days culture, read-out: concentration exhibiting anti-cell effect (GI50)
Description: as §1, §2, §3, §4

T1 sequence (P42345 1362-2549): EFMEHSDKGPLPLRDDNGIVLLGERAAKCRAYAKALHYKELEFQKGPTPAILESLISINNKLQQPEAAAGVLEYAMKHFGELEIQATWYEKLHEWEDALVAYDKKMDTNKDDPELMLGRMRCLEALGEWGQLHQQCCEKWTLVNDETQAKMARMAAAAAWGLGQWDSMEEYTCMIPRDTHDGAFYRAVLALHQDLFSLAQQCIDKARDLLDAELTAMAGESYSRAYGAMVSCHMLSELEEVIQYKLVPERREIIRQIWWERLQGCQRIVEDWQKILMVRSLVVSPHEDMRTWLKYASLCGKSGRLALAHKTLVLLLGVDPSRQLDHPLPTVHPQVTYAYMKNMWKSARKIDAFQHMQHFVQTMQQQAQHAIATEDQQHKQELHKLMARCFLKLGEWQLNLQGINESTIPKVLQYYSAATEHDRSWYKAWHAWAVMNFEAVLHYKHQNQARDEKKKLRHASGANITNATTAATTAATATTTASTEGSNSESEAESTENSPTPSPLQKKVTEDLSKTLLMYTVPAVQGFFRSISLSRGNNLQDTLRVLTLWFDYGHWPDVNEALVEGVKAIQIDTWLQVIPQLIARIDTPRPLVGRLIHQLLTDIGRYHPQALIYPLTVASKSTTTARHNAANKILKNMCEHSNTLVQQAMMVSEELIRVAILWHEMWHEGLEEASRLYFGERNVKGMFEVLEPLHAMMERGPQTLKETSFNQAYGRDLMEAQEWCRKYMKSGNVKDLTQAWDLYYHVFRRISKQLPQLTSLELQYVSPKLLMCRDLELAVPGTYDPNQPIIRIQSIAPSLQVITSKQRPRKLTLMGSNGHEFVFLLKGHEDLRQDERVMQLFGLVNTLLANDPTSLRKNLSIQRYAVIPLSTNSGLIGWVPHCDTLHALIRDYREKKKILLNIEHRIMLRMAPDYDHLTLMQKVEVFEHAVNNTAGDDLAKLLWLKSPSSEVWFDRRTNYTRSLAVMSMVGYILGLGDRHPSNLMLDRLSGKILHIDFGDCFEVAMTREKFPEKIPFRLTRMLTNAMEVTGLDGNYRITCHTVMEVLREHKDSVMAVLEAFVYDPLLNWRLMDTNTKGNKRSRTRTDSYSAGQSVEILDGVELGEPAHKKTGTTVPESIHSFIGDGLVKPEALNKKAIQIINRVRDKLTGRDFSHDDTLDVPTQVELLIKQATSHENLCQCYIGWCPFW
PI3Kα, sequence (P42336 whole entry, species assumed): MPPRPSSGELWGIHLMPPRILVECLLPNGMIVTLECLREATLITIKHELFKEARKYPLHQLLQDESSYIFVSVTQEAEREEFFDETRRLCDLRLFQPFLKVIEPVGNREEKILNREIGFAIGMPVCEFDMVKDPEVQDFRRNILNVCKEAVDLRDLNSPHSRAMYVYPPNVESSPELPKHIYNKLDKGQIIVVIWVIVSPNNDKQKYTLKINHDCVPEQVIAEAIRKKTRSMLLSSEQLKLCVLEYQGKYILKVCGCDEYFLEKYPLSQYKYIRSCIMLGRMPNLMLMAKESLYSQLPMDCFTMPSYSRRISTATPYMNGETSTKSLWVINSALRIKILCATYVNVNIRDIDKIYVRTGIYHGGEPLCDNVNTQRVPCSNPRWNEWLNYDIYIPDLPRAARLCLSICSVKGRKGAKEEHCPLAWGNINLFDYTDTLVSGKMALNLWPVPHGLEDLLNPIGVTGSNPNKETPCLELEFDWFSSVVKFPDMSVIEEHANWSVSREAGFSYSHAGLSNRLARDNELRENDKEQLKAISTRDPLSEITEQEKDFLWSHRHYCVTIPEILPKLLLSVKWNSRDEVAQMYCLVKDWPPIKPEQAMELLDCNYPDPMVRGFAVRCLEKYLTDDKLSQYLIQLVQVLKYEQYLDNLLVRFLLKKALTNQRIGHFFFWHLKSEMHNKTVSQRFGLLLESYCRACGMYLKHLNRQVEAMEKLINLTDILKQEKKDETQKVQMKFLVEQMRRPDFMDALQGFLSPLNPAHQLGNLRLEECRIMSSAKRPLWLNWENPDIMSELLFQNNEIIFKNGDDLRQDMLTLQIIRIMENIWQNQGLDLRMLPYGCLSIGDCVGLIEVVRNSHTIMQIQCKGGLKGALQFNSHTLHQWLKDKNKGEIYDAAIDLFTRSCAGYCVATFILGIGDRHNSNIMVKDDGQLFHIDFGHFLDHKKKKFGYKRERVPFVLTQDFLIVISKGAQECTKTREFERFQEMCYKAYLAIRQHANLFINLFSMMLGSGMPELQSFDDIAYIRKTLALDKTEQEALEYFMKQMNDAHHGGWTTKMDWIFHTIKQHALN
PI3Kα, sequence (P27986 whole entry partner, species assumed): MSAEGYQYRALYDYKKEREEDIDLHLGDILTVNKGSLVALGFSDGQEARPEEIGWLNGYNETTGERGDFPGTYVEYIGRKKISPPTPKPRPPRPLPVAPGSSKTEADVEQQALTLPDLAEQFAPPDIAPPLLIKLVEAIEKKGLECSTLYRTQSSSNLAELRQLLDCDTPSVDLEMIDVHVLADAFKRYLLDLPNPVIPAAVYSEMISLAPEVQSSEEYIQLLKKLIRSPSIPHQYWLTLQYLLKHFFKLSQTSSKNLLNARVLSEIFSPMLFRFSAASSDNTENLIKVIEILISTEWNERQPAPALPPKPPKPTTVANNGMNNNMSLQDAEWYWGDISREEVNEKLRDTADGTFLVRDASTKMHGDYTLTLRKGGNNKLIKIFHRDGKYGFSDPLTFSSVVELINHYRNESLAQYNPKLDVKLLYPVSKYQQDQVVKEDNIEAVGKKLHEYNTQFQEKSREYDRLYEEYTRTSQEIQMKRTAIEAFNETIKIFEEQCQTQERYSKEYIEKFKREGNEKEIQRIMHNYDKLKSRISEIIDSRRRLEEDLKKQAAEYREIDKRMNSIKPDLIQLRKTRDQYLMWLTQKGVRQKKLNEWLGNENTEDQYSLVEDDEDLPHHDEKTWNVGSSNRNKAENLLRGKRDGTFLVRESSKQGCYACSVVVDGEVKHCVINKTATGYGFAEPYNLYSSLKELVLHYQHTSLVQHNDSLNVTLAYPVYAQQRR

Row | SMILES | GI50 [1] | GI50 [2] | IC50 [3] | IC50 [4] | GI50 [5]
1 | CS(=O)(=O)N1CCN(c2nc3c(N4CCOCC4)nc(-c4cnc(N)nc4)nc3n2[C@H]2CCN(S(C)(=O)=O)C2)CC1 [Example 27, 5-{8-[4-(Methylsulfonyl)piperazin-1-yl]-9-[(3S)-1-(methylsulfonyl)pyrrolidin-3-yl]-6-morpholin-4-yl-9H-purin-2-yl}pyrimidin-2-amine] | ≤ 5 µM | ≤ 5 µM | 30 to 100 nM | 20 to 50 nM | ≤ 5 µM
2 | CN(C)CCNc1nc2c(N3CCOCC3)nc(-c3cnc(N)nc3)nc2n1CC1CC1 [Example 28, N′-[2-(2-Aminopyrimidin-5-yl)-9-(cyclopropylmethyl)-6-morpholin-4-yl-9H-purin-8-yl]-N,N-dimethylethane-1,2-diamine] | ≤ 5 µM | ≤ 5 µM | 100 to 500 nM | 10 to 20 nM | ≤ 5 µM
3 | Nc1ncc(-c2nc(N3CCOCC3)c3nc(NCCN4CCOCC4)n(CC4CC4)c3n2)cn1 [Example 29, 2-(2-Aminopyrimidin-5-yl)-9-(cyclopropylmethyl)-6-morpholin-4-yl-N-(2-morpholin-4-ylethyl)-9H-purin-8-amine] | ≤ 5 µM | ≤ 5 µM | 100 to 500 nM | 10 to 20 nM | ≤ 5 µM
4 | Nc1ncc(-c2nc(N3CCOCC3)c3nc(NCCO)n(CC4CC4)c3n2)cn1 [Example 30, 2-{[2-(2-Aminopyrimidin-5-yl)-9-(cyclopropylmethyl)-6-morpholin-4-yl-9H-purin-8-yl]amino}ethanol] | ≤ 5 µM | ≤ 5 µM | 30 to 100 nM | 10 to 20 nM | ≤ 5 µM
5 | Nc1ncc(-c2nc(N3CCOCC3)c3nc(N4CCC(S(=O)(=O)c5ccccc5)C4)n(CC4CC4)c3n2)cn1 (centres unmarked) [Example 31, 5-{9-(Cyclopropylmethyl)-6-morpholin-4-yl-8-[3-(phenylsulfonyl)pyrrolidin-1-yl]-9H-purin-2-yl}pyrimidin-2-amine] | ≤ 5 µM | ≤ 5 µM | 30 to 100 nM | < 10 nM | ≤ 5 µM
6 | Cc1nc(N)ncc1-c1nc(N2CCOCC2)c2nc(NCCNS(C)(=O)=O)n(CC3CC3)c2n1 [Example 32, N-(2-{[2-(2-Amino-4-methylpyrimidin-5-yl)-9-(cyclopropylmethyl)-6-morpholin-4-yl-9H-purin-8-yl]amino}ethyl)methanesulfonamide] | ≤ 5 µM | ≤ 5 µM | ≥ 500 nM | 20 to 50 nM | ≤ 5 µM
7 | Cc1nc(N)ncc1-c1nc(N2CCOCC2)c2nc(N3CCC(N(C)C)C3)n(CC3CC3)c2n1 (centres unmarked) [Example 33, 5-{9-(Cyclopropylmethyl)-8-[3-(dimethylamino)pyrrolidin-1-yl]-6-morpholin-4-yl-9H-purin-2-yl}-4-methylpyrimidin-2-amine] | ≤ 5 µM | ≤ 5 µM | ≥ 500 nM | 20 to 50 nM | ≤ 5 µM
8 | Cc1nc(N)ncc1-c1nc(N2CCOCC2)c2nc(N3CCC(N(C)S(C)(=O)=O)C3)n(CC3CC3)c2n1 (centres unmarked) [Example 34, N-{1-[2-(2-Amino-4-methylpyrimidin-5-yl)-9-(cyclopropylmethyl)-6-morpholin-4-yl-9H-purin-8-yl]pyrrolidin-3-yl}-N-methylmethanesulfonamide] | ≤ 5 µM | ≤ 5 µM | 100 to 500 nM | 10 to 20 nM | ≤ 5 µM
9 | Cc1nc(N)ncc1-c1nc(N2CCOCC2)c2nc(N3CCC(NS(C)(=O)=O)C3)n(CC3CC3)c2n1 (centres unmarked) [Example 35, N-{1-[2-(2-Amino-4-methylpyrimidin-5-yl)-9-(cyclopropylmethyl)-6-morpholin-4-yl-9H-purin-8-yl]pyrrolidin-3-yl}methanesulfonamide] | ≤ 5 µM | ≤ 5 µM | ≥ 500 nM | 10 to 20 nM | ≤ 5 µM
10 | Cc1nc(N)ncc1-c1nc(N2CCOCC2)c2nc(N3CCC(C(N)=O)CC3)n(CC3CC3)c2n1 [Example 36, 1-[2-(2-Amino-4-methylpyrimidin-5-yl)-9-(cyclopropylmethyl)-6-morpholin-4-yl-9H-purin-8-yl]piperidine-4-carboxamide] | ≤ 5 µM | ≤ 5 µM | 100 to 500 nM | < 10 nM | ≤ 5 µM

From patent US8309546B2, “Morpholinopurine derivatives” (Daiichi Sankyo Company, Limited, priority 2008, dated 2012)
